Source: patent US10144730B2, “Inhibitors of c-Jun-N-terminal kinase (JNK)” (Dana-Farber Cancer Institute, Inc., priority 2011, dated 2018)

What was measured:
JNK1 = JNK1 (Homo sapiens, UniProt P45983); assay: Biochemical JNK1 kinase inhibition (Z'-lyte format); settings: Table 2
JNK2 = JNK2 (Homo sapiens, UniProt P45984); assay: Biochemical JNK2 kinase inhibition (Z'-lyte format); settings: Table 2
JNK3 = JNK3 (Homo sapiens, UniProt P53779); assay: Biochemical JNK3 kinase inhibition (Z'-lyte format); settings: Table 2
c-Jun phosphorylation [1] = assay: LanthaScreen TR-FRET cell assay for c-Jun phosphorylation in HeLa cells; type: cell-based; settings: Homo sapiens; for IC50: HeLa cells, rounded values of the text, read-out: IC50 for inhibiting c-Jun phosphorylation in HeLa cells; for EC50: Hela cells, TNF-α stimulation, read-out: p-c-Jun EC50 (nM) Hela
Procedure: Phosphorylation was determined by measuring the time resolved FRET (TR-FRET) between a terbium labeled phospho-c-Jun specific antibody and GFP. The cells were plated in white tissue culture treated 384 well plates at a density of 10,000 cell per well in 32 μL assay medium (Opti-MEM®, supplemented with 0.5% charcoal/dextran-treated FBS, 100 U/ml penicillin and 100 μg/ml streptomycin, 0.1 mM nonessential amino acids, 1 mM sodium pyruvate, 25 mM Hepes, pH 7.3, and lacking phenol red). After overnight incubation, cells were pretreated for 90 minutes with compound (at indicated concentration) diluted in 4 μL assay buffer followed by 30 min of stimulation with 5 ng/ml of TNF-α in 4 μL assay buffer (final assay volume was 40 μl). The medium was then removed by aspiration, and the cells were lysed by adding 20 μl of lysis buffer (20 mM Tris-HCl, pH 7.6, 5 mM EDTA, 1% Nonidet P-40 substitute, 5 mM NaF, 150 mM NaCl, and 1:100 protease and phosphatase inhibitor mix, SIGMA P8340 and P2850, respectively). The lysis buffer included 2 nM of the terbium-labeled anti-c-Jun (pSer73) detection antibodies (Life Technologies). After allowing the assay to equilibrate for 60 minutes at room temperature, TR-FRET emission ratios were determined on a BMG Pherastar fluorescence plate reader (BMG Labtech, Cary, N.C.) using the following parameters: excitation at 340 nm; emission at 520 nm and 490 nm; 100 μs lag time; 200 μs integration time; and emission ratio=Em520/Em490. All data were analyzed and plotted using Graphpad Prism 4.
(§1) In parallel with biochemical evaluation, the ability of the compounds to inhibit JNK activity in cells was investigated using two independent assays formats. This is a critical issue because there are several reported JNK inhibitors with nanomolar biochemical potency that translate into micromolar cellular inhibitors. The most well characterized direct phosphorylation substrate of JNK is the transcription factor c-Jun.

c-Jun phosphorylation [2] = assay: High throughput microscopy of c-Jun phosphorylation in A375 cells; type: cell-based; settings: Homo sapiens, A-375; for IC50: rounded values of the text, read-out: IC50 for inhibiting c-Jun phosphorylation in A375 cells
Procedure: Cells were fixed in 2% paraformaldehyde for 10 min at room temperature and washed with PBS-T (Phosphate Buffered Saline, 0.1% Tween 20). Cells were permeabilized in methanol for 10 min at room temperature, washed with PBS-T, and blocked in Odyssey Blocking Buffer (LI-COR Biosciences) for 1 hour at room temperature. Cells were incubated overnight at 4° C. with antibody specific for Erk1/2(pT202/pY204), Akt(pS473), c-Jun(pS73), pP38(T180/Y182) and pSTAT3(Y705) (Cell Signaling Technology), pRSK1(S380) and pMSK1(S376) (Epitomics), and NF-κB (Santa Cruz Biotechnology) diluted 1:400 in Odyssey Blocking Buffer. […] Cells were washed twice with PBS and imaged in an imageWoRx high-throughput microscope (Applied Precision). Data were plotted using DataPflex.
as §1

JNK = assay: Binding kinetics (pulse-chase) assay, ATP-biotin labeling of JNK in A375 cells; type: cell-based; settings: 1 μM compound
Procedure: A375 cells were incubated with inhibitors for the indicated amount of time after which cell lysates were prepared and labeled with ATP-biotin. Biotinylated proteins were pulled down with streptavidin beads and material bound to the beads was eluted and separate by SDS-PAGE followed by Western blot analysis for JNK.
A375 cells (ATCC® CRL-1619™) were pre-treated with 1 μM compound for the indicated amounts of time. Remove the medium and wash 3 times with PBS. Resuspend the cell pellet with 1 mL Lysis Buffer (1% NP-40, 1% CHAPS, 25 mM Tris, 150 mM NaCl, Phosphatase Inhibitor Cocktail, Roche 04906845001, and Protease Inhibitor Cocktail Roche 11836170001). Rotate end-to-end for 30 min at 4° C. Lysates were cleared by centrifugation at 14000 rpm for 15 min in the Eppendorf. The cleared lysates gel filtered into Kinase Buffer (0.1% NP-40, 20 mM HEPES, 150 mM NaCl, Phosphatase Inhibitor Cocktail, and Protease Inhibitor Cocktail) using Bio-Rad 10DG colums. The total protein concentration of the gel-filtered lysate should be around 5-15 mg/ml. […]
In order to evaluate the kinetics with which JNK-IN-5 could covalently modify JNK in cells, a pulse-chase assay was developed . […] Streptavidin affinity chromatography is then used to isolate all biotinylated proteins and JNK protein is detected following SDS-PAGE and Western blotting (FIG. 8). […]

[3] = tested on: NF-kB nuclear translocation; assay: High-throughput microscopy, NF-kB nuclear translocation; type: cell-based; settings: Homo sapiens, A-375, A375 cells, TNF-α stimulation, read-out: Cellular EC50 NF-kB
Procedure: (§2) A375 cells were stimulated with anisomycin (FIGS. 14A and 14C to 14F), IGF-1 (FIG. 14B), IL-6 (FIG. 14G), and TNF-α (FIG. 14H) for sixty minutes. The output of multiple signaling pathways was measured using high throughput microscopy at multiple concentrations of four JNK inhibitors and a control compound specific to each pathway DMSO (FIG. 14A), MK2206 (allosteric Akt inhibitor, Haoyuan Chemexpress Co., Limited. Hirai, et al., 2010) (FIG. 14B), PD0325901 (allosteric Mek inhibitor, Haoyuan Chemexpress Co., Limited. Barrett, et al., 2008) (FIGS. 14C and 14D), SB239063 (ATP-competitive p38 inhibitor, Haoyuan Chemexpress Co., Limited. Underwood et al., 2000) (FIGS. 14E and 14F), KIN001-040 (ATP-competitive JAK1,2,3 inhibitor, Haoyuan Chemexpress Co., Limited. Thompson et al., 2002) (FIG. 14G), and KIN001-208 (IKK inhibitor VIII, Haoyuan Chemexpress Co., Limited., Murata, et al., 2004) (FIG. 14H).
(§3) Cells were plated at 7500 cells/well in 96-well microscopy plates (Corning) in recommended media for 24 hours, and then starved in media lacking serum for 16 hours. Cells were pre-treated for 180 minutes with 10-fold stock solutions of JNK inhibitors and for 10 min with control compounds MK2206, PD0325901, SB239063, KIN040, and KIN208 and treated with 10-fold stock solutions of IGF-1, IL-6, TNF-α (all PeproTech), or anisomycin for 60 minutes. Cells were fixed in 2% paraformaldehyde for 10 min at room temperature and washed with PBS-T (Phosphate Buffered Saline, 0.1% Tween 20). Cells were permeabilized in methanol for 10 min at room temperature, washed with PBS-T, and blocked in Odyssey Blocking Buffer (LI-COR Biosciences) for 1 hour at room temperature. Cells were incubated overnight at 4° C. with antibody specific for Erk1/2(pT202/pY204), Akt(pS473), c-Jun(pS73), pP38(T180/Y182) and pSTAT3(Y705) (Cell Signaling Technology), pRSK1(S380) and pMSK1(S376) (Epitomics), and NF-κB (Santa Cruz Biotechnology) diluted 1:400 in Odyssey Blocking Buffer. Cells were washed three times in PBS-T and incubated with rabbit-specific secondary antibody labeled with Alexa Fluor 647 (Invitrogen) diluted 1:2000 in Odyssey Blocking Buffer. Cells were washed once in PBS-T and once in PBS and incubated in 250 ng/ml Hoechst 33342 (Invitrogen) and 1:1000 Whole Cell Stain (blue; Thermo Scientific) solution. Cells were washed twice with PBS and imaged in an imageWoRx high-throughput microscope (Applied Precision). Data were plotted using DataPflex. […]

phosphorylation of Akt = assay: High-throughput microscopy, phosphorylation of Akt; type: cell-based; settings: Homo sapiens, A-375, A375 cells, IGF-1 stimulation, read-out: Cellular EC50 pAkt
Procedure: as §2, §3

phosphorylation of Erk = assay: High-throughput microscopy, phosphorylation of Erk; type: cell-based; settings: Homo sapiens, A-375, A375 cells, anisomycin stimulation, read-out: Cellular EC50 pErk
Procedure: as §2, §3

phosphorylation of p38 = assay: High-throughput microscopy, phosphorylation of p38; type: cell-based; settings: Homo sapiens, A-375, A375 cells, anisomycin stimulation, read-out: Cellular EC50 pP38
Procedure: as §2, §3

phosphorylation of RSK = assay: High-throughput microscopy, phosphorylation of RSK; type: cell-based; settings: Homo sapiens, A-375, A375 cells, anisomycin stimulation, read-out: Cellular EC50 pRSK
Procedure: as §2, §3

phosphorylation of STAT3 = assay: High-throughput microscopy, phosphorylation of STAT3; type: cell-based; settings: Homo sapiens, A-375, A375 cells, IL-6 stimulation, read-out: Cellular EC50 pSTAT3
Procedure: as §2, §3

[4] = A375 cells, anisomycin stimulation, read-out: p-c-Jun EC50 (nM) A375
[5] = Table 5, A375, read-out: E50/A375

Chain of JNK3 (P53779 whole entry): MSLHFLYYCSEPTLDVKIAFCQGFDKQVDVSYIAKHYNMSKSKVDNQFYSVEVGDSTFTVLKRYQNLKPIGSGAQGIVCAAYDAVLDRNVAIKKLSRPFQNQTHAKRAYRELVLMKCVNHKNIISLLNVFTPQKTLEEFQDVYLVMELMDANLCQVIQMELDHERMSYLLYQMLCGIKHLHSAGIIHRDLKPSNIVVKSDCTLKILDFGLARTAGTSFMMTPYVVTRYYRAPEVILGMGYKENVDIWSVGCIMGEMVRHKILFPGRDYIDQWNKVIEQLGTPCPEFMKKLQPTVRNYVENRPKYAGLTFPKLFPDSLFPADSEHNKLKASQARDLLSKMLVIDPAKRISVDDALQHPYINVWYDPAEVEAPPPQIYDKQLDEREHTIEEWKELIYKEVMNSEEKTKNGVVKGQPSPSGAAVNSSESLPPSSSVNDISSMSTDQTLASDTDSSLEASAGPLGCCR
Chain of JNK1 (P45983 whole entry): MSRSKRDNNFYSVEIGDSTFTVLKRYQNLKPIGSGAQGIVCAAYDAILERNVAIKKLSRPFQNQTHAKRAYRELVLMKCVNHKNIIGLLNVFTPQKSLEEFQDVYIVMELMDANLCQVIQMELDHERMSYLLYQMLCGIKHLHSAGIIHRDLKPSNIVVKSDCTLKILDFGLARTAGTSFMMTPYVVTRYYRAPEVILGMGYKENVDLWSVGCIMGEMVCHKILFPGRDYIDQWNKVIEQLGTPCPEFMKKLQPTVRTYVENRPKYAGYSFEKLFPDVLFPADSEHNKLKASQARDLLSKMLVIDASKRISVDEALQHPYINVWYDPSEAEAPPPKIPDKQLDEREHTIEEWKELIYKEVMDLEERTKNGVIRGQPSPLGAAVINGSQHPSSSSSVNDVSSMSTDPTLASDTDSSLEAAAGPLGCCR
Chain of JNK2 (P45984 whole entry): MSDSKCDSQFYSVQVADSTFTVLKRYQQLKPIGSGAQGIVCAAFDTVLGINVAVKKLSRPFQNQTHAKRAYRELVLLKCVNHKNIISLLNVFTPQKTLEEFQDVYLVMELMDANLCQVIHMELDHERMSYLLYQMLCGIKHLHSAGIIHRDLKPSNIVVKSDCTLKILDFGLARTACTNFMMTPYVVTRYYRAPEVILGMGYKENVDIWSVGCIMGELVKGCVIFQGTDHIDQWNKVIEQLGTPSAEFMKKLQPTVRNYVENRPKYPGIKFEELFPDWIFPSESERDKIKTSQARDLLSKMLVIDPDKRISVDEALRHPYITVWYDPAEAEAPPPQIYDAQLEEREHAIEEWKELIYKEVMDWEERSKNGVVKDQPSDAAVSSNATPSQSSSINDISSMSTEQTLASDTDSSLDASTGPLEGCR

Compound	IC50 (JNK3)	EC50 (c-Jun phosphorylation [1])	EC50 (c-Jun phosphorylation [2]; [4])	EC50 (c-Jun phosphorylation [2]; [5])	other results
C=CC(=O)Nc1cccc(C(=O)Nc2ccc(Nc3nccc(-c4cccnc4)n3)cc2)c1 [JNK-IN-5]	0.96 nM	118 nM	32 nM	32 nM	IC50 (JNK1): 2.11 nM; IC50 (JNK2): 1.93 nM; IC50 (c-Jun phosphorylation [1]): ~0.1 µM; IC50 (c-Jun phosphorylation [2]; A375 cells): ~0.03 µM; incubation time to fully protect JNK from labeling by ATP-biotin (JNK): approximately three
CN(C)C/C=C/C(=O)Nc1cccc(C(=O)Nc2ccc(Nc3nccc(-c4c(-c5ccccc5)nn5ccccc45)n3)cc2)c1 [JNK-IN-11]	0.5 nM	48 nM	8.6 nM	–	IC50 (JNK1): 1.34 nM; IC50 (JNK2): 0.5 nM; IC50 (c-Jun phosphorylation [1]): ~0.03 µM; EC50 (c-Jun phosphorylation [2]; A375 cells, anisomycin stimulation, high-throughput microscopy, Table 4, read-out: Cellular EC50 pc-Jun): < 10 nM; IC50 (c-Jun phosphorylation [2]; A375 cells): ~0.01 µM; EC50 [3]: > 10 µM; EC50 (phosphorylation of Akt): > 10 µM; EC50 (phosphorylation of Erk): 0.019 µM; EC50 (phosphorylation of p38): 0.015 µM; EC50 (phosphorylation of RSK): 0.02 µM; EC50 (phosphorylation of STAT3): > 10 µM
Oc1c2ccccc2c2c3c(cccc13)N=N2 [SP-600125, reference compound]	–	7450 nM	1980 nM	–	–
C=CC(=O)Nc1ccc(C(=O)Nc2cccc(Nc3nccc(-c4cccnc4)n3)c2)cc1 [ZG-9]	–	–	–	5460 nM	–

Now from value to compound, other results behind:

IC50 (JNK3)	EC50 (c-Jun phosphorylation [1])	EC50 (c-Jun phosphorylation [2]; [4])	EC50 (c-Jun phosphorylation [2]; [5])	Compound	other results
0.5 nM	104 nM	117 nM	–	Cc1ccc(NC(=O)/C=C/CN(C)C)cc1C(=O)Nc1ccc(Nc2nccc(-c3cccnc3)n2)cc1 [JNK-IN-9]	–
0.5 nM	173 nM	141 nM	–	Cc1ccc(C(=O)Nc2ccc(Nc3nccc(-c4cccnc4)n3)cc2)cc1NC(=O)/C=C/CN(C)C [JNK-IN-10]	–
–	–	–	2400 nM	CN(C)C/C=C/C(=O)Nc1ccc(C(=O)Nc2cccc(Nc3nccc(-c4cccnc4)n3)c2)cc1 [ZG-10]	–
